According to patent US10870678B2, “Chiral peptides” (ARCUATE THERAPEUTICS, INC., priority 2016, dated 2020):
Like-named read-outs stand apart in the source and are kept apart here.

Legend:
Format in all cases: cell-based
[1] = test system: GM16548 Rett syndrome human cell line; assay: Functional Mitochondrial Toxicity Assay (GM16548)
Protocol: (§1) The present Examples interrogate the two major energy producing pathways in the cell, mitochondrial respiration and glycolysis. HepG2 human liver cancer cell lines were dosed with test compounds and in real time the extracellular oxygen levels and pH were measured using the XFe96 flux analyser (Seahorse Biosciences). XFe Technology uses solid-state sensors to simultaneously measure both oxygen consumption rate (OCR) and extracellular acidification rate (ECAR) to determine effects on oxidative phosphorylation (OXPHOS) and glycolysis simultaneously. The cells were then subjected to sequential exposure to various inhibitors of mitochondrial functional to assess cellular metabolism.
(§2) A positive mitochondrial active compound is determined when there is a change in OCR or ECAR in the absence of cytotoxicity. Cytotoxicity was determined when both oxidative phosphorylation (OCR) and glycolysis (ECAR) were inhibited.
(§3) OCR is a measurement of oxygen content in extracellular media. Changes in OCR indicate effects on mitochondrial function, and can be bi-directional. A decrease is due to an inhibition of mitochondrial respiration, whilst an increase may indicate an uncoupler, in which respiration is not linked to energy production.
(§4) ECAR is the measurement of extracellular proton concentration (pH). An increase in signal means an increase in rate in number of pH ions (Thus decreasing pH value), and seen as an increase in glycolysis. Expressed as a fraction of basal control (rate prior to addition of compound).
(§5) Reverse capacity is the measured ability of cells to respond to an increase in energy demand, a reduction indicates mitochondrial dysfunction.
(§6) The Mitochondrial Stress Test is a series of sequential additions of compounds to the cells to assess a bioenergetics profile, and effects of test compounds on parameters such as proton leak and research capacity. This was used to assist in understanding potential mechanisms of mitochondrial toxicity. For example, it involves the addition of the follow compounds in this order:
The present Example interrogates the two major energy producing pathways in the cell, mitochondrial respiration and glycolysis. A GM16548 Rett syndrome human cell line was dosed with test compound I-39 using the general protocol outlined in Example 2 above.

[2] = test system: GM01061 Huntington Disease human cell line; assay: Functional Mitochondrial Toxicity Assay (GM01061)
Protocol: as §1, §2, §3, §4, §5, §6
The present Example interrogates the two major energy producing pathways in the cell, mitochondrial respiration and glycolysis. A GM01061 Huntington Disease human cell line was dosed with test compound I-39 using the general protocol outlined in Example 2 above.

[3] = test system: HepG2 human liver cancer cell line; assay: Functional Mitochondrial Toxicity Assay, XFe96 Seahorse (HepG2); details: HepG2
Protocol: as §1, §2, §3, §4, §5, §6
Oligomycin is a known inhibitor of ATP synthase, and prevents the formation of ATP. This provides a measurement of the amount of oxygen consumption related to ATP production and ATP turnover. The addition of Oligomycin results in a decrease in OCR under normal conditions, and residual OCR is related to the natural proton leak.
Carbonyl cyanide 4-(trifluoromethoxy)phenylhydrazine (FCCP) is a protonphore, and is a known uncoupler of oxygen consumption from ATP production. This allows the maximum achievable transfer of electrons and oxygen consumption rate, and provides a measurement of reserve capacity.
Rotenone and antimycin A are known inhibitors of complex I and III of the electron transport chain, respectively. This inhibits electron transport completely, and any residual oxygen consumption is due to non-mitochondrial activity via oxygen requiring enzymes.

[4] = test system: GM05162 Duchenne muscular dystrophy human cell line; assay: Functional Mitochondrial Toxicity Assay (GM05162)
Protocol: as §1, §2, §3, §4, §5, §6
The present Example interrogates the two major energy producing pathways in the cell, mitochondrial respiration and glycolysis. A GM05162 Duchenne muscular dystrophy human cell line was dosed with test compound I-17 using the general protocol outlined in Example 2 above.

[5] = test system: GM01299 propionic acidemia human cell line; assay: Functional Mitochondrial Toxicity Assay (GM01299)
Protocol: as §1, §2, §3, §4, §5, §6
The present Example interrogates the two major energy producing pathways in the cell, mitochondrial respiration and glycolysis. A GM01299 propionic acidemia human cell line was dosed with test compound I-17 using the general protocol outlined in Example 2 above.

[6] = read-out: Reserve Capacity AC50

## (D-Phe)(D-Orn)(D-Tyr)(D-Orn)-NH2 [Peptide I-39]
[1]
  Potential Mechanism: Other
  Reserve Capacity MEC: 60.2 µM
  Reserve Capacity ↑↓: ↑
[1]; read-out: ECAR AC50
  AC50: > 100 µM
[1]; read-out: OCR AC50
  AC50: > 100 µM
[1]; [6]
  AC50: > 100 µM
[2]
  Potential Mechanism: No effect
[2]; read-out: ECAR AC50
  AC50: > 100 µM
[2]; [6]
  AC50: > 100 µM
[3]
  ECAR ↑↓: ↓
  Potential Mechanism: Other
  Reserve Capacity ↑↓: ↑
[3]; listed as I-39(1)
  ECAR MEC: 30.1 µM
  Reserve Capacity MEC: 92.4 µM
[3]; listed as I-39(2)
  ECAR MEC: 15.3 µM
  Reserve Capacity MEC: 67.6 µM
[3]; listed as I-39(3)
  ECAR MEC: 21.2 µM
  Reserve Capacity MEC: 77.3 µM
[3]; read-out: ECAR AC50
  AC50: > 100 µM
[3]; read-out: OCR AC50
  AC50: > 100 µM
[3]; [6]
  AC50: > 100 µM

## O=C(O)CCC(=O)O [Succinate]
[4]
  ECAR MEC: 0.179 µM
  ECAR ↑↓: ↑
  Potential Mechanism: Other
[4]; read-out: ECAR AC50
  AC50: 2.91 µM
[4]; [6]
  AC50: > 100 µM
[1]
  Potential Mechanism: Other
  Reserve Capacity MEC: 72.3 µM
  Reserve Capacity ↑↓: ↑
[1]; read-out: ECAR AC50
  AC50: > 100 µM
[1]; read-out: OCR AC50
  AC50: > 100 µM
[1]; [6]
  AC50: > 100 µM
[2]
  Potential Mechanism: No effect
[2]; read-out: ECAR AC50
  AC50: > 100 µM
[2]; [6]
  AC50: > 100 µM
[5]
  Potential Mechanism: Other
  Reserve Capacity MEC: 38.2 µM
  Reserve Capacity ↑↓: ↑
[5]; read-out: ECAR AC50
  AC50: > 100 µM
[5]; read-out: OCR AC50
  AC50: > 100 µM
[5]; [6]
  AC50: > 100 µM
[3]
  OCR MEC: 74.8 µM
  OCR ↑↓: ↑
  Potential Mechanism: Uncoupler
  Reserve Capacity MEC: 62.5 µM
  Reserve Capacity ↑↓: ↑
[3]; read-out: ECAR AC50
  AC50: > 100 µM
[3]; read-out: OCR AC50
  AC50: > 100 µM
[3]; [6]
  AC50: > 100 µM

## CC(O)CC(=O)O (stereo not drawn) [β-OHB]
[4]
  Potential Mechanism: Other
  Reserve Capacity MEC: 1.15 µM
  Reserve Capacity ↑↓: ↑
[4]; read-out: ECAR AC50
  AC50: > 100 µM
[4]; [6]
  AC50: 69.5 µM
[1]
  Potential Mechanism: Other
  Reserve Capacity MEC: 23.1 µM
  Reserve Capacity ↑↓: ↑
[1]; read-out: ECAR AC50
  AC50: > 100 µM
[1]; [6]
  AC50: 72.2 µM
[2]
  Potential Mechanism: Other
  Reserve Capacity MEC: 81.1 µM
  Reserve Capacity ↑↓: ↑
[2]; read-out: ECAR AC50
  AC50: > 100 µM
[2]; read-out: OCR AC50
  AC50: > 100 µM
[2]; [6]
  AC50: > 100 µM
[5]
  ECAR MEC: 89.8 µM
  ECAR ↑↓: ↓
  Potential Mechanism: Other
  Reserve Capacity MEC: 25.3 µM
  Reserve Capacity ↑↓: ↑
[5]; read-out: ECAR AC50
  AC50: > 100 µM
[5]; read-out: OCR AC50
  AC50: > 100 µM
[5]; [6]
  AC50: > 100 µM
[3]
  Potential Mechanism: Other
  Reserve Capacity MEC: 53.0 µM
  Reserve Capacity ↑↓: ↑
[3]; read-out: ECAR AC50
  AC50: > 100 µM
[3]; read-out: OCR AC50
  AC50: > 100 µM
[3]; [6]
  AC50: > 100 µM

## (D-Phe)(D-Orn)(D-Tyr)(L-Arg)-NH2 [Peptide I-16]
[3]
  Potential Mechanism: Other
  Reserve Capacity MEC: 84.5 µM
  Reserve Capacity ↑↓: ↑
[3]; read-out: ECAR AC50
  AC50: > 100 µM
[3]; read-out: OCR AC50
  AC50: > 100 µM
[3]; [6]
  AC50: > 100 µM

## (L-Phe)(L-Lys)(L-Leu)(D-Arg)-NH2 [Peptide I-28]
[3]
  Potential Mechanism: Other
  Reserve Capacity MEC: <0.1 µM
  Reserve Capacity ↑↓: ↓
[3]; read-out: ECAR AC50
  AC50: > 100 µM
[3]; read-out: OCR AC50
  AC50: > 100 µM
[3]; [6]
  AC50: 1.28 µM

## (L-Phe)(L-Orn)(L-Leu)(D-Arg)-NH2 [Peptide I-30]
[3]
  Potential Mechanism: No effect
[3]; read-out: ECAR AC50
  AC50: > 100 µM
[3]; read-out: OCR AC50
  AC50: > 100 µM
[3]; [6]
  AC50: > 100 µM

## (D-Arg)(L-Phe)(L-Lys)(L-Phe)-NH2 [Peptide I-22]
[3]
  Potential Mechanism: No effect
  Reserve Capacity MEC: 100 µM
  Reserve Capacity ↑↓: ↑
[3]; read-out: ECAR AC50
  AC50: > 100 µM
[3]; read-out: OCR AC50
  AC50: > 100 µM
[3]; [6]
  AC50: > 100 µM

## (L-Phe)(L-Orn)(L-Tyr)(D-Arg)-NH2 [Peptide I-14]
[3]
  Potential Mechanism: No effect
[3]; read-out: ECAR AC50
  AC50: > 100 µM
[3]; read-out: OCR AC50
  AC50: > 100 µM
[3]; [6]
  AC50: > 100 µM

## (D-Orn)((L-Dmt)(L-Orn)(L-Phe)-NH2 [Peptide I-4]
[3]
  Potential Mechanism: No effect
[3]; read-out: ECAR AC50
  AC50: > 100 µM
[3]; read-out: OCR AC50
  AC50: > 100 µM
[3]; [6]
  AC50: > 100 µM

## (L-Phe)(L-Lys)(L-Phe)(D-Arg)-NH2 [Peptide I-29]
[3]
  Potential Mechanism: Other
  Reserve Capacity MEC: 0.203 µM
  Reserve Capacity ↑↓: ↓
[3]; read-out: ECAR AC50
  AC50: > 100 µM
[3]; read-out: OCR AC50
  AC50: > 100 µM
[3]; [6]
  AC50: 4.17 µM

## (D-Phe)(D-Lys)(D-Leu)(L-Arg)-NH2 [Peptide I-34]
[3]
  Potential Mechanism: Other
  Reserve Capacity MEC: <0.1 µM
  Reserve Capacity ↑↓: ↓
[3]; read-out: ECAR AC50
  AC50: > 100 µM
[3]; read-out: OCR AC50
  AC50: > 100 µM
[3]; [6]
  AC50: 0.957 µM

## (L-Phe)(L-Orn)(L-Leu)(D-Orn)-NH2 [Peptide I-31]
[3]
  Potential Mechanism: No effect
[3]; read-out: ECAR AC50
  AC50: > 100 µM
[3]; read-out: OCR AC50
  AC50: > 100 µM
[3]; [6]
  AC50: > 100 µM

## (D-Lys)(L-Tyr)(L-Orn)(L-Phe)-NH2 [Peptide I-8]
[3]
  Potential Mechanism: Other
  Reserve Capacity MEC: 79.7 µM
  Reserve Capacity ↑↓: ↑
[3]; read-out: ECAR AC50
  AC50: > 100 µM
[3]; read-out: OCR AC50
  AC50: > 100 µM
[3]; [6]
  AC50: > 100 µM
